Results published in EP0220825A2, “Pharmaceutical composition for topical application” (DIOMED DEVELOPMENTS LIMITED, priority 1985, dated 1987).
Values joined by “and” are separate entries in the source; they are usually repeats but may differ in a detail not shown here. Identical values can stand only once.

Key:
local blood flow = assay: Laser Doppler flowmeter measurement of blood cell flux after topical application; assay type: in vivo; conditions: for No. measurable responses: of ten subjects; for Time to response Initial / Time to response Peak / Time to response Return to zero: ± S.D.
Description: The blood cell flux is then given by the product of the number of red blood cells found to be moving in the irradiated volume of skin and adjacent tissue and the mean red blood cell velocity. The results expressed by the flowmeter indicate the relative change of the blood cell flux over control conditions, i.e. before application of the composition. […] The figures for "area" given in the third column are obtained by graphical integration of a graph of blood cell flux against time obtained using the laser Doppler flowmeter. Any figure in this column greater than about 20 may be regarded as indicative of a useful improvement in local blood flow in the treated area. […] Thus the compositions in accordance with the invention make it possible to obtain a useful increase in local blood flow without appreciable erythema. The compositions of the present invention are thus useful in preventing pressure sores where is it desired to stimulate local blood flow without obvious erythema.

skin = assay: Erythema score after topical application; assay type: in vivo
Description: Using an erythema scale of 0 to 3, an erythema value of up to 0.5 (which is barely detectable) is considered acceptable. The figures for "area" given in the third column are obtained by graphical integration of a graph of blood cell flux against time obtained using the laser Doppler flowmeter. Any figure in this column greater than about 20 may be regarded as indicative of a useful improvement in local blood flow in the treated area. […] Thus the compositions in accordance with the invention make it possible to obtain a useful increase in local blood flow without appreciable erythema. The compositions of the present invention are thus useful in preventing pressure sores where is it desired to stimulate local blood flow without obvious erythema.

SMILES: CCCCCCOC(=O)c1cccnc1 [hexyl nicotinate, Hexyl nicotinate]
- Area (local blood flow; 0.025 % hexyl nicotinate lotion, site arms, single subjects, area under curve of blood cell flux against time, adjusted to a sensitivity of 1): 0 cm^2 (4×) and 124.05 cm^2
- Area (local blood flow; 0.025 % hexyl nicotinate lotion, site buttocks, single subjects, area under curve of blood cell flux against time): 5.00 cm^2 and 0 cm^2 (3×) and 51.59 cm^2
- Area (local blood flow; 0.05 % hexyl nicotinate lotion (Example l), site arms, single subjects, area under curve of blood cell flux against time): 32.17 cm^2 and 0 cm^2 and 89.59 cm^2 and 80.90 cm^2 and 126.32 cm^2
- Area (local blood flow; 0.05 % hexyl nicotinate lotion (Example l), site buttocks, single subjects, area under curve of blood cell flux against time): 91.86 cm^2 and 22.28 cm^2 and 4.29 cm^2 and 0 cm^2 and 64.73 cm^2
- Area (local blood flow; 0.10 % hexyl nicotinate lotion, site arms, single subjects, area under curve of blood cell flux against time): 103.06 cm^2 and 0 cm^2 and 82.80 cm^2 and 152.26 cm^2 and 119.99 cm^2
- Area (local blood flow; 0.10 % hexyl nicotinate lotion, site buttocks, single subjects, area under curve of blood cell flux against time): 246.74 cm^2 and 119.97 cm^2 and 0 cm^2 and 5.24 cm^2 and 199.76 cm^2
- No. measurable responses (local blood flow; 0.025 % hexyl nicotinate): 2
- No. measurable responses (local blood flow; 0.05 % hexyl nicotinate): 8
- No. measurable responses (local blood flow; 0.10 % hexyl nicotinate): 8
- Area (local blood flow; summary of ten subjects, 0.025 % hexyl nicotinate): 18.05 cm^2
- Area (local blood flow; summary of ten subjects, 0.05 % hexyl nicotinate): 51.21 cm^2
- Area (local blood flow; summary of ten subjects, 0.10 % hexyl nicotinate): 102.98 cm^2
- Time to response Initial (local blood flow; 0.025 % hexyl nicotinate): 5.5 ± 0.7 min
- Time to response Peak (local blood flow; 0.025 % hexyl nicotinate): 22.5 ± 6.4 min
- Time to response Return to zero (local blood flow; 0.025 % hexyl nicotinate): 78.5 ± 16.3 min
- Time to response Initial (local blood flow; 0.05 % hexyl nicotinate): 10.6 ± 5.0 min
- Time to response Peak (local blood flow; 0.05 % hexyl nicotinate): 27.9 ± 12.3 min
- Time to response Return to zero (local blood flow; 0.05 % hexyl nicotinate): 75.8 ± 19.2 min
- Time to response Initial (local blood flow; 0.10 % hexyl nicotinate): 7.8 ± 2.3 min
- Time to response Peak (local blood flow; 0.10 % hexyl nicotinate): 20.8 ± 6.4 min
- Time to response Return to zero (local blood flow; 0.10 % hexyl nicotinate): 83.3 ± 17.7 min
- Erythema (skin; 0.025 % hexyl nicotinate lotion, site arms, single subjects, score 0-3 (0=No erythema, 3=severe erythema)): 0 (4×) and 0.5
- Erythema (skin; 0.025 % hexyl nicotinate lotion, site buttocks, single subjects, score 0-3): 0 (4×) and 1
- Erythema (skin; 0.05 % hexyl nicotinate lotion (Example l), site arms, single subjects, score 0-3): 0 (2×) and 0.5 (2×) and 1
- Erythema (skin; 0.05 % hexyl nicotinate lotion (Example l), site buttocks, single subjects, score 0-3): 1 (2×) and 0.5 and 0 (2×)
- Erythema (skin; 0.10 % hexyl nicotinate lotion, site arms, single subjects, score 0-3): 2 (3×) and 0 and 1
- Erythema (skin; 0.10 % hexyl nicotinate lotion, site buttocks, single subjects, score 0-3): 2 and 1 and 0.5 (2×) and 3
- Erythema (skin; concentrations in the range 0.l to 0.2% by weight of the composition, patients): cause erytheme in a significant proportion of patients
- Erythema (skin; summary of ten subjects, 0.025 % hexyl nicotinate, score 0-3): 0.15
- Erythema (skin; summary of ten subjects, 0.05 % hexyl nicotinate, score 0-3): 0.45
- Erythema (skin; summary of ten subjects, 0.10 % hexyl nicotinate, score 0-3): 1.40
